In publication PMC5361079 (Scientific Reports, 2017):

Experiments:
hiPSC-CMs = assay: Intracellular prodrug, cleavage intermediate metabolite and NTP metabolite concentrations in hiPSC-CMs; format: in vitro ADME, human; details: hiPSC-CMs; for Intracellular Concentration, Cleavage Intermediate Metabolite / Intracellular Concentration, NTP Metabolite: BLOQ = below 17 pmol/million cells
Experimental: Approximately 18 h before dosing, iCell hiPSC-CMs were switched to iCell cardiomyocyte maintenance media free of Penicillin/Streptomycin. […] […] After the corresponding treatment, cells were washed 2x with 200 μL of ice-cold magnesium- and calcium-free PBS buffer. Cells were then lysed in 100 μL of ice-cold lysis solution (70/30 methanol/water containing 20 mM EDTA and 20 mM EGTA, pH 8) by pipetting up and down 5 times. Plates were sealed and transferred on dry ice for determination of prodrug, cleavage intermediate metabolite, and NTP metabolite concentrations. Intracellular prodrug concentrations were measured using a reversed phase HPLC- high resolution mass spectrometry method. A dimethylhexylamine based ion-pairing HPLC-MS/MS method was used to measure intracellular cleavage intermediate metabolite and NTP metabolite concentrations. Intracellular concentrations (pmol/million cells) of prodrug, cleavage intermediate metabolite, and NTP metabolite were quantitated against calibration standards of the same analytes prepared from control iCell hiPSC-CM lysates.
For prodrug analyses, full scan high resolution mass spectrometry data was collected using an Exactive™ Orbitrap mass spectrometer with an electrospray source operated in the positive ion mode. Prodrug chromatograms were extracted from full scan high resolution mass spectrometry data for the masses indicated in Supplementary Table 5. Absence of endogenous interference(s) was verified by extracting the same ion from full scan high resolution mass spectrometry chromatograms of unspiked control cell lysates. For the cleavage intermediate metabolite and NTP metabolite an electrospray MS/MS method run on a SCIEX API 4000 mass spectrometer with turboV ionspray source was used in negative ion mode monitoring the transitions indicated in Supplementary Table 5. Absence of endogenous interference(s) was verified by monitoring of the same MRM transitions for unspiked control cell lysates. Measured intracellular prodrug, cleavage intermediate metabolite, and NTP metabolite concentrations (in pmol/million cells units) were tabulated (Table 2).

hiPSC-CM syncytia = assay: Spontaneous FP rate and IMP amplitude/beating rate in hiPSC-CM syncytia (RTCA CardioECR / RTCA Cardio); format: cell-based, human; details: prodrug co-administered with 0.3 μM amiodarone, steady state (4 h), spontaneously beating hiPSC-CM syncytia
Experimental: hiPSC-CMs (iCells®) from Cellular Dynamics International (CDI, Madison, WI, USA) were seeded onto 48-well CardioECR or 96-well Cardio E-Plates® (ACEA Biosciences Inc., San Diego, CA, USA) coated with 10 μg/mL fibronectin (Sigma Aldrich, Catalog# F1141) at 30,000 cells/well, following manufacturer’s recommendations. Cells were maintained in culture (37 °C, 5% CO2) for a period of 14 days with iCell Maintenance® media (CDI, Madison, WI, USA) exchanged every 2–3 days. Compound addition was only performed on or after Day 14 following cell seeding.
Compound stock solutions were prepared in 100% DMSO or H2O. On the day of compound addition, the media was exchanged with fresh iCell Maintenance® media and allowed to equilibrate for at least 3 h in the incubator. The plates were read on an xCELLigence® RTCA CardioECR or RTCA Cardio (ACEA Biosciences Inc., San Diego, CA, USA). Control pre-reads to establish a baseline were recorded for at least 45 minutes (4 reads at 15-min intervals) prior to compound addition. The compound stock solutions were diluted into iCell Maintenance® media and quickly added to the plate. The plate was continuously monitored for at least 18 h following compound addition. IMP data were sampled at 12 ms (83 Hz), while FP rate data were collected at 0.1 ms (10 KHz). Attachment, growth and viability of syncytia were monitored by means of the baseline IMP signal, as previously described. IMP and FP signals were only interpreted if the baseline IMP was maintained throughout the measurement period (usually ≤18 hrs) at ≥70% of the value before test compound application (pre-read value).

[1] = test system: conscious, male rhesus monkeys; details: intravenous infusion of MK-3682 after AMIO pretreatment; cited from earlier work
[2] = 10 μM prodrug + 0.3 μM amiodarone, 4 Hours
[3] = 10 μM prodrug + 0.3 μM amiodarone, 30 Min

## CC(C)OC(=O)[C@@H](C)NP(=O)(OC[C@H]1O[C@@H](n2ccc(=O)[nH]c2=O)[C@](C)(Cl)[C@@H]1O)Oc1ccccc1 (stereo partly drawn) [MK-3682, isopropyl (2R)-2-[[[(2R,3R,4R,5R)-4-chloro-5-(2,4-dioxopyrimidin-1-yl)-3-hydroxy-4-methyl-tetrahydrofuran-2-yl]methoxy-phenoxy-phosphoryl]amino]propanoate]
hiPSC-CMs; [2]
  Intracellular Concentration, Prodrug: 91.9 ± 12.4 pmol/million cells
  Intracellular Concentration, Cleavage Intermediate Metabolite: BLOQ
  Intracellular Concentration, NTP Metabolite: BLOQ
hiPSC-CMs; [3]
  Intracellular Concentration, Prodrug: 95.0 ± 6.7 pmol/million cells
  Intracellular Concentration, Cleavage Intermediate Metabolite: BLOQ
  Intracellular Concentration, NTP Metabolite: BLOQ
hiPSC-CMs; 10 μM prodrug alone, 4 Hours
  Intracellular Concentration, Prodrug: 100.4 ± 13.2 pmol/million cells
  Intracellular Concentration, Cleavage Intermediate Metabolite: BLOQ
  Intracellular Concentration, NTP Metabolite: BLOQ
hiPSC-CMs; 10 μM prodrug alone, 30 Min
  Intracellular Concentration, Prodrug: 89.8 ± 12.9 pmol/million cells
  Intracellular Concentration, Cleavage Intermediate Metabolite: BLOQ
  Intracellular Concentration, NTP Metabolite: BLOQ
hiPSC-CM syncytia
  Effect on FP rate: lack of effects
  Effect on IMP amplitude: lack of effects
[1]
  Bradycardia and bradyarrhythmia: not observed
